In brackets after ≈: the same amount, converted by molar mass.
Assays:
[1] = tested on: HCMV recombinant mutant virus (RV145); assay: microbe, parasite or virus in culture; format: cell-based, human cytomegalovirus; details: for IC50: Human betaherpesvirus 5, read-out: IC50 ug/ml HCMV, HCMV
Summary of the method: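 Human foreskin fibroblasts infected with HCMV RV145 carrying a viral-promoter-driven beta-glucuronidase gene, in presence of compound. At 96 h post-infection, lysates assayed for beta-glucuronidase with colorimetric or fluorogenic glucuronide substrate as replication read-out. IC50 estimated from varying inhibitor amounts.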

VZV strain Ellen = assay: VZV Antiviral (ELISA) Assay in human foreskin fibroblast cells; format: cell-based, varicella-zoster virus; details: for inhibition at 10 µg/mL / IC50: Human alphaherpesvirus 3, Fibroblast; for inhibition at 10 µg/mL: read-out: % inhibition 10 ug/ml VZV, 10 ug/ml; for IC50: read-out: IC50 (ug/ml) VZV
Summary of the method: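 HFF cells infected overnight with VZV Ellen at MOI <0.1, mixed with uninfected cells, were seeded with compound and grown 3 days at 37° C in DMEM/2% FBS. Viral glycoprotein II was detected by ELISA with β-galactosidase-linked secondary; IC50 from fluorescence versus no-compound wells.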

HSV-1 = assay: HSV Antiviral (ELISA) Assay in Vero cells; format: cell-based, herpes simplex virus type 1; details: HSV-1, Vero cells; for IC50: Human alphaherpesvirus 1, read-out: IC50 (ug/ml) HSV
Summary of the method: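 Viral replication was quantified by cell-fixed ELISA for HSV glycoprotein D, using a β-galactosidase reporter and fluorogenic umbelliferyl substrate, about 24 h after HSV-1 infection (MOI 0.006) of Vero cells. Compounds, at several concentrations, were added 30 min pre-infection. IC50 was derived from fluorescence relative to the compound-free signal.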

SMILES | IC50 ug/ml HCMV [1] [µg/mL] | IC50 (ug/ml) VZV (VZV strain Ellen) [µg/mL] | % inhibition 10 ug/ml VZV (VZV strain Ellen; 10 ug/ml) [%] | IC50 (ug/ml) HSV (HSV-1) [µg/mL] | IC50 [1] [µg/mL] | inhibition at 10 µg/mL (VZV strain Ellen) [%] | IC50 (VZV strain Ellen) [µg/mL] | IC50 (HSV-1) [µg/mL]
COc1ccccc1C(=O)Nc1ccc(NC(=S)Nc2cc(Cl)c(OC)c(Cl)c2)cc1 [Example 873] | 0.3 (≈ 0.63 µM) | >10 | 23 | >10 | – | – | – | –
O=C(Nc1ccc(NC(=S)Nc2ccc(Cl)c(Cl)c2)cc1)c1ccccc1F [Example 912, N-{4-[3-(3,4-Dichloro-phenyl)-thioureido]-phenyl}-2-fluoro-benzamide] | – | – | – | – | > 10 | 21 | > 10 | 8 (≈ 18.4 µM)
O=C(Nc1ccc(NC(=S)Nc2ccc(F)c(Cl)c2)cc1)c1ccccc1F [Example 922, N-{4-[3-(3-Chloro-4-fluoro-phenyl)-thioureido]-phenyl}-2-fluoro-benzamide] | – | – | – | – | > 10 | 40 | > 10 | 1 (≈ 2.39 µM)
O=C(Nc1ccc(NC(=S)Nc2cc(Cl)ccc2Cl)cc1)c1ccccc1F [Example 931, N-{4-[3-(2,5-Dichloro-phenyl)-thioureido]-phenyl}-2-fluoro-benzamide] | – | – | – | – | > 10 | 51 | > 10 | 4 (≈ 9.21 µM)
O=C(Nc1ccc(NC(=S)Nc2cc(Cl)cc(Cl)c2)cc1)c1ccccc1F [Example 934, N-{4-[3-(3,5-Dichloro-phenyl)-thioureido]-phenyl}-2-fluoro-benzamide] | – | – | – | – | > 10 | 18 | > 10 | > 10
O=C(Nc1ccc(NC(=S)Nc2cc(Cl)c(Cl)c(Cl)c2)cc1)c1ccccc1F [Example 937, 2-Fluoro-N-{4-[3-(3,4,5-trichloro-phenyl)-thioureido]-phenyl}-benzamide] | – | – | – | – | 2 (≈ 4.27 µM) | 25 | > 10 | 0.7 (≈ 1.49 µM)
COC(=O)c1cccc(NC(=S)Nc2ccc(NC(=O)c3ccccc3F)cc2)c1 [Example 950, 3-{3-[4-(2-Fluoro-benzoylamino)-phenyl]-thioureido}-benzoic acid methyl ester] | – | – | – | – | > 10 | – | > 10 | 8 (≈ 18.9 µM)
O=C(Nc1ccc(NC(=S)Nc2cccc([N+](=O)[O-])c2)cc1)c1ccccc1F [Example 959, 2-Fluoro-N-{4-[3-(3-nitro-phenyl)-thioureido]-phenyl}-benzamide] | – | – | – | – | > 10 | 33 | > 10 | 0.7 (≈ 1.71 µM)
O=C(Nc1ccc(NC(=S)Nc2cccc(F)c2)cc1)c1ccccc1F [Example 962, 2-Fluoro-N-{4-[3-(3-fluoro-phenyl)-thioureido]-phenyl}-benzamide] | – | – | – | – | > 10 | 10 | > 10 | > 10
O=C(O)c1cccc(NC(=S)Nc2ccc(NC(=O)c3ccccc3F)cc2)c1 [Example 963, 3-{3-[4-(2-Fluoro-benzoylamino)-phenyl]-thioureido}-benzoic acid] | – | – | – | – | > 10 | 30 | > 10 | > 10
O=C(O)c1cccc(NC(=S)Nc2ccc(NC(=O)c3ccco3)cc2)c1 [Example 964, 3-(3-{4-[(Furan-2-carbonyl)-amino]-phenyl}-thioureido)-benzoic acid] | – | – | – | – | > 10 | 0 | > 10 | > 10
CC(=O)c1cccc(NC(=S)Nc2ccc(NC(=O)c3ccccc3F)cc2)c1 [Example 965, N-{4-[3-(3-Acetyl-phenyl)-thioureido]-phenyl}-2-fluoro-benzamide] | – | – | – | – | > 10 | 12 | > 10 | 5 (≈ 12.3 µM)
CC(NC(=S)Nc1ccc(NC(=O)c2ccccc2C(F)(F)F)cc1)c1cc2ccccc2o1 (centres unmarked) [Example 974, N-{4-[3-(1-Benzofuran-2-yl-ethyl)-thioureido]-phenyl}-2-trifluoromethyl-benzamide] | – | – | – | – | > 10 | – | > 7.5 | > 10
CC(NC(=S)Nc1ccc(C(=O)Nc2ccc(F)cc2)cc1)c1ccc(F)cc1 (centres unmarked) [Example 975, N-(4-Fluoro-phenyl)-4-{3-[1-(4-fluoro-phenyl)-ethyl]-thioureido}-benzamide] | – | – | – | – | > 10 | – | 0.87 (≈ 2.11 µM) | > 10
CC(NC(=S)Nc1ccc(NC(=O)c2nccc3ccccc23)cc1)c1ccc(F)cc1 (centres unmarked) [Example 976, Isoquinoline-1-carboxylic acid (4-{3-[1-(4-fluoro-phenyl)-ethyl]-thioureido}-phenyl)-amide] | >10 | – | – | – | – | – | 0.04 (≈ 0.09 µM) | > 10
CC(NC(=S)Nc1ccc(NC(=O)c2nccc3ccccc23)cc1)c1cc2ccccc2o1 (centres unmarked) [Example 977, Isoquinoline-1-carboxylic acid {4-[3-(1-benzofuran-2-yl-ethyl)-thioureido]-phenyl}-amide] | – | – | – | – | > 10 | – | 0.05 (≈ 0.107 µM) | > 10
CC(NC(=S)Nc1ccc(NC(=O)c2cc3ccccc3o2)cc1)c1ccc(F)cc1 (centres unmarked) [Example 980, Benzofuran-2-carboxylic acid (4-{3-[1-(4-fluoro-phenyl)-ethyl]-thioureido}-phenyl)-amide] | – | – | – | – | > 10 | – | 0.15 (≈ 0.346 µM) | > 10
CC(NC(=S)Nc1ccc(NC(=O)c2cc3ccccc3o2)cc1)c1cc2ccccc2o1 (centres unmarked) [Example 981, Benzofuran-2-carboxylic acid {4-[3-(1-benzofuran-2-yl-ethyl)-thioureido]-phenyl}-amide] | – | – | – | – | > 10 | – | 0.2 (≈ 0.439 µM) | > 10
CC(NC(=S)Nc1ccc(NC(=O)c2cc3ccccc3cn2)cc1)c1cc2ccccc2o1 (centres unmarked) [Example 985, Isoquinoline-3-carboxylic acid {4-[3-(1-benzofuran-2-yl-ethyl)-thioureido]-phenyl}-amide] | – | – | – | – | > 10 | – | 0.035 (≈ 0.075 µM) | > 10
CC(NC(=S)Nc1ccc(NC(=O)c2cnc3ccccc3c2)cc1)c1ccc(F)cc1 (centres unmarked) [Example 988, Quinoline-3-carboxylic acid (4-{3-[1-(4-fluoro-phenyl)-ethyl]-thioureido}-phenyl)-amide] | – | – | – | – | > 10 | – | 3.4 (≈ 7.65 µM) | > 10
CC(C)COc1ccc(NC(=S)Nc2ccc(NC(=O)c3ccccc3F)cc2)cc1Cl [Example 994, N-{4-[3-(3-Chloro-4-isobutoxy-phenyl)-thioureido]-phenyl}-2-fluoro-benzamide] | – | – | – | – | > 10 | – | > 10 | > 10
COc1ccc(NC(=S)Nc2ccc(NC(=O)c3ccccc3F)cc2)cc1F [Example 995, 2-Fluoro-N-{4-[3-(3-fluoro-4-methoxy-phenyl)-thioureido]-phenyl}-benzamide] | – | – | – | – | > 10 | – | > 10 | > 10
COCCOc1ccc(NC(=S)Nc2ccc(NC(=O)c3ccccc3F)cc2)cc1Cl [Example 996, N-(4-{3-[3-Chloro-4-(2-methoxy-ethoxy)-phenyl]-thioureido}-phenyl)-2-fluoro-benzamide] | – | – | – | – | > 10 | – | 10 (≈ 21.1 µM) | > 10
Cc1ccc(NC(=S)Nc2ccc(NC(=O)c3ccccc3F)cc2)cc1F [Example 997, 2-Fluoro-N-{4-[3-(3-fluoro-4-methyl-phenyl)-thioureido]-phenyl}-benzylamide] | 4 (≈ 10.1 µM) | >10 | – | 1.9 (≈ 4.78 µM) | – | – | – | –

From patent publication US6462055B2, “Alpha-methylbenzyl-containing thiourea inhibitors of herpes viruses containing a phenylenediamine group” (Wyeth, priority 1998, dated 2002)
